The source of these data is US5948437A, “Pharmaceutical compositions using thiazepine” (Zeneca Limited, priority 1997, dated 1999).

One data set can be described thus: physchem. The following applies: water.
For data set [1] the following is noted: compound and its pharmaceutically acceptable salts; cited from earlier work.

Counter-ions that a name gives are not always drawn.

As to `OCCOCCN1CCN(C2=Nc3ccccc3Sc3ccccc32)CC1` [hemifumarate salt, 11-[4-[2-(2-hydroxyethoxy)ethyl]-1-piperazinyl]dibenzo[b,f][1,4]-thiazepine], the solubility (thermodynamic) (commonly solubility found after equilibrating the solid with the medium) in the data set “physchem” amounted to 3290 µg/mL. Take `OCCOCCN1CCN(C2=Nc3ccccc3Sc3ccccc32)CC1` [11-[4-[2-(2-hydroxyethoxy)ethyl]-1-piperazinyl]-dibenzo[b,f][1,4]thiazepine]: the antidopaminergic activity entry in data set [1] is recorded as “exhibit useful antidopaminergic activity”.
